Laboratory results reported in US20120035076A1, “IRAK KINASE FAMILY AS NOVEL TARGET AND BIOMARKER FOR ALZHEIMER” (Vereniging Voor Christelijk Hoger Onderwijs …, priority 2009, published 2012).

Experiments:
[1] = tested on: IL-6 secretion by human primary astrocytes; experiment: IL-1β induced IL-6 secretion by human primary astrocytes (ELISA); format: cell-based; conditions: IL-1β 10 U/ml, 6 hours, inhibitor 1250, 2500 or 5000 nM
Source text: IL-1β has been implicated in both the initiation and propagation of neuroinflammatory changes seen in Alzheimer's disease patients. One of the main mechanisms of IL-1β is the induction of interleukin 6 (IL-6) secretion, which propagates the neuroinflammatory response in Alzheimer's disease patients. Using primary human adult astrocytes this inflammatory response as well as modulators (i.e. potential drugs for therapy) can be studied in vitro. […] In the presence of IL-1β (10 U/ml) these cells secrete IL-6 in the culture supernatant, which can be measured by ELISA. […] Cells were incubated with or without IL-1β (10 U/ml) for 6 hours in the presence of different concentration of IRAK1/4 inhibitor I (1250, 2500, or 5000 nM). IL-6 levels (pg/ml) in the culture supernatants were determined by ELISA. Shown are mean levels +/−S.D. of three replicate stimulations.

[2] = tested on: IL-6 secretion by U373 astrocytoma cells; experiment: IL-1β induced IL-6 secretion by U373 astrocytoma cells (ELISA); format: cell-based; conditions: IL-1β 10 U/ml, 6 hours, inhibitor 1250, 2500 or 5000 nM
[3] = FIG. 1, listed as IRAK1/4 inhibitor

Compound: O=C(Nc1nc2ccccc2n1CCN1CCOCC1)c1cccc([N+](=O)[O-])c1 [IRAK1/4 inhibitor I]
- IL-6 secretion in culture supernatant ([1]; FIG. 1): dose-dependently inhibits IL-6 secretion
- IL-6 secretion in culture supernatant [1, 3]: reduced
- IL-6 secretion in culture supernatant ([2]; FIG. 1): dose-dependently inhibits IL-6 secretion
- IL-6 secretion in culture supernatant [2, 3]: reduced
